Tests used:
Caco-2 [1] = assay: Cytotoxicity against human Caco-2 cells assessed as reduction in cell viability incubated for 72 hrs by MTT assay; format: functional, cell-based; settings: Caco-2, 72 h
[2] = Cytotoxicity against human MRC5 cells assessed as reduction in cell viability incubated for 48 hrs by MTT assay; format: toxicity, cell-based
HeLa [3] = assay: Cytotoxicity against human HeLa cells assessed as reduction in cell viability incubated for 48 hrs by MTT assay; format: functional, cell-based
HeLa [4] = assay: Cytotoxicity against human HeLa cells assessed as reduction in cell viability incubated for 24 hrs by MTT assay; format: functional, cell-based
MCF7 [5] = assay: Cytotoxicity against human MCF7 cells assessed as reduction in cell viability incubated for 48 hrs by MTT assay; format: functional, cell-based; settings: MCF7, 48 h
OVCAR-3 [6] = assay: Cytotoxicity against human OVCAR-3 cells assessed as reduction in cell viability incubated for 72 hrs by MTT assay; format: functional, cell-based; settings: OVCAR-3, 72 h
[7] = Cytotoxicity against human MRC5 cells assessed as reduction in cell viability incubated for 24 hrs by MTT assay; format: toxicity, cell-based
OVCAR-3 [8] = assay: Cytotoxicity against human OVCAR-3 cells assessed as reduction in cell viability incubated for 24 hrs by MTT assay; format: functional, cell-based; settings: OVCAR-3, 24 h
MCF7 [9] = assay: Cytotoxicity against human MCF7 cells assessed as reduction in cell viability incubated for 72 hrs by MTT assay; format: functional, cell-based; settings: MCF7, 72 h
OVCAR-3 [10] = assay: Cytotoxicity against human OVCAR-3 cells assessed as reduction in cell viability incubated for 48 hrs by MTT assay; format: functional, cell-based; settings: OVCAR-3, 48 h
Caco-2 [11] = assay: Cytotoxicity against human Caco-2 cells assessed as reduction in cell viability incubated for 24 hrs by MTT assay; format: functional, cell-based; settings: Caco-2, 24 h
MCF7 [12] = assay: Cytotoxicity against human MCF7 cells assessed as reduction in cell viability incubated for 24 hrs by MTT assay; format: functional, cell-based; settings: MCF7, 24 h
MIA PaCa-2 [13] = assay: Cytotoxicity against human MIA PaCa-2 cells assessed as reduction in cell viability incubated for 48 hrs by MTT assay; format: functional, cell-based; settings: MIA PaCa-2, 48 h
Caco-2 [14] = assay: Cytotoxicity against human Caco-2 cells assessed as reduction in cell viability incubated for 48 hrs by MTT assay; format: functional, cell-based; settings: Caco-2, 48 h
HeLa [15] = assay: Cytotoxicity against human HeLa cells assessed as reduction in cell viability incubated for 72 hrs by MTT assay; format: functional, cell-based
MIA PaCa-2 [16] = assay: Cytotoxicity against human MIA PaCa-2 cells assessed as reduction in cell viability incubated for 24 hrs by MTT assay; format: functional, cell-based; settings: MIA PaCa-2, 24 h
[17] = Cytotoxicity against human MRC5 cells assessed as reduction in cell viability incubated for 72 hrs by MTT assay; format: toxicity, cell-based
MIA PaCa-2 [18] = assay: Cytotoxicity against human MIA PaCa-2 cells assessed as reduction in cell viability incubated for 72 hrs by MTT assay; format: functional, cell-based; settings: MIA PaCa-2, 72 h

Row | SMILES | IC50 (Caco-2 [1]) | IC50 at 48 h [2] | IC50 (HeLa [3]) | IC50 (HeLa [4]) | IC50 (MCF7 [5]) | IC50 (OVCAR-3 [6]) | IC50 at 24 h [7] | IC50 (OVCAR-3 [8]) | IC50 (MCF7 [9]) | IC50 (OVCAR-3 [10]) | IC50 (Caco-2 [11]) | IC50 (MCF7 [12]) | IC50 (MIA PaCa-2 [13]) | IC50 (Caco-2 [14]) | IC50 (HeLa [15]) | IC50 (MIA PaCa-2 [16]) | IC50 at 72 h [17] | IC50 (MIA PaCa-2 [18])
1 | OC[C@H]1O[C@@H](n2cnc3c(NCc4cccs4)ncnc32)[C@H](O)[C@@H]1O | 5.9 µM | 2.1 µM | > 100 µM | > 100 µM | 3 µM | 1.5 µM | 12.7 µM | > 100 µM | 2.6 µM | 2.9 µM | 16.9 µM | 20.8 µM | 1.2 µM | 10.5 µM | > 100 µM | > 100 µM | 1.8 µM | 1.1 µM
2 | Nc1nc(NCc2ccco2)nc2c1ncn2[C@@H]1O[C@H](CO)[C@@H](O)[C@H]1O | > 100 µM | > 100 µM | > 100 µM | > 100 µM | > 100 µM | > 100 µM | > 100 µM | > 100 µM | > 100 µM | > 100 µM | > 100 µM | > 100 µM | > 100 µM | > 100 µM | > 100 µM | > 100 µM | > 100 µM | > 100 µM
3 | OC[C@H]1O[C@@H](n2cnc3c(NCc4ccco4)ncnc32)[C@@H](O)[C@@H]1O | > 100 µM | > 100 µM | > 100 µM | > 100 µM | > 100 µM | > 100 µM | > 100 µM | > 100 µM | > 100 µM | > 100 µM | > 100 µM | > 100 µM | > 100 µM | > 100 µM | > 100 µM | > 100 µM | > 100 µM | > 100 µM
4 | OC[C@H]1O[C@@H](n2nnc3c(NCc4ccco4)ncnc32)[C@H](O)[C@@H]1O | 11.5 µM | 11.7 µM | 14.5 µM | > 100 µM | 4.3 µM | 1.1 µM | > 100 µM | > 100 µM | 3.8 µM | 76 µM | 25 µM | 27 µM | 2.8 µM | 18.7 µM | 4.6 µM | > 100 µM | 4.6 µM | 1.1 µM
